Laboratory results from patent publication US8829007B2 (priority 2009, dated 2014).

Each compound was assayed on influenza A virus (A/PR/8/34) (assay: microbe, parasite or virus in culture). Conditions: Influenza A virus, PR/8, MDCK, MDCK cells infected with A/PR/8/34, cell protection (CPE); read-out: IC50 (mean all).
Assay type: cell-based

SMILES	IC50 [µM]
O=C(O)COCC(=O)N1CCC[C@H](CNc2nc(-c3c[nH]c4ncc(Cl)cc34)ncc2F)C1 [Compound 54, (R)-2-(2-(3-((2-(5-chloro-1H-pyrrolo[2,3-b]pyridin-3-yl)-5-fluoropyrimidin-4-ylamino)methyl)piperidin-1-yl)-2-oxoethoxy)ethanoic acid]	5 to 20
Cc1cnc(-c2c[nH]c3ncc(Cl)cc23)nc1NC1CCCCC1N (stereo not shown) [Compound 116, N1-(2-(5-chloro-1H-pyrrolo[2,3-b]pyridin-3-yl)-5-methylpyrimidin-4-yl)cyclohexane-1,2-diamine]	> 20
COc1cccc(C(=O)N2CCCC[C@H]2CNc2nc(-c3c[nH]c4ncc(Cl)cc34)ncc2F)c1 [Compound 174, (S)-(2-((2-(5-chloro-1H-pyrrolo[2,3-b]pyridin-3-yl)-5-fluoropyrimidin-4-ylamino)methyl)piperidin-1-yl)(3-methoxyphenyl)methanone]	> 20
CC(=O)N1CCC[C@H](CNc2nc(-c3c[nH]c4ncccc34)ncc2F)C1 [Compound 268, (R)-1-(3-((5-fluoro-2-(1H-pyrrolo[2,3-b]pyridin-3-yl)pyrimidin-4-ylamino)methyl)piperidin-1-yl)ethanone]	5 to 20
CC(C)(C)CC(=O)N1CCC[C@@H](CNc2nc(-c3c[nH]c4ncc(Cl)cc34)ncc2F)C1 [Compound 42, (S)-1-(3-((2-(5-chloro-1H-pyrrolo[2,3-b]pyridin-3-yl)-5-fluoropyrimidin-4-ylamino)methyl)piperidin-1-yl)-3,3-dimethylbutan-1-one]	> 20
COc1ccccc1C(=O)N1CCCC[C@H]1CNc1nc(-c2c[nH]c3ncccc23)ncc1F [Compound 260, (S)-(2-((5-fluoro-2-(1H-pyrrolo[2,3-b]pyridin-3-yl)pyrimidin-4-ylamino)methyl)piperidin-1-yl)(2-methoxyphenyl)methanone]	> 20
OCCN1CCC[C@@H](CNc2nc(-c3c[nH]c4ncc(Cl)cc34)ncc2F)C1 [Compound 133, (S)-2-(3-((2-(5-chloro-1H-pyrrolo[2,3-b]pyridin-3-yl)-5-fluoropyrimidin-4-ylamino)methyl)piperidin-1-yl)ethanol]	> 20
O=C(O)[C@H]1C[C@H]1C(=O)N1CCC[C@H](CNc2nc(-c3c[nH]c4ncc(Cl)cc34)ncc2F)C1 [Compound 83, (1S,2R)-2-((R)-3-((2-(5-chloro-1H-pyrrolo[2,3-b]pyridin-3-yl)-5-fluoropyrimidin-4-ylamino)methyl)piperidine-1-carbonyl)cyclopropanecarboxylic acid]	> 20
CN(C)CC(=O)N1CCC[C@@H](CNc2nc(-c3c[nH]c4ncc(Cl)cc34)ncc2F)C1 [Compound 46, (S)-1-(3-((2-(5-chloro-1H-pyrrolo[2,3-b]pyridin-3-yl)-5-fluoropyrimidin-4-ylamino)methyl)piperidin-1-yl)-2-(dimethylamino)ethanone]	> 20
CC(C)(C)C(=O)CN1CCC[C@@H](CNc2nc(-c3c[nH]c4ncc(Cl)cc34)ncc2F)C1 [Compound 140, (S)-1-(3-((2-(5-chloro-1H-pyrrolo[2,3-b]pyridin-3-yl)-5-fluoropyrimidin-4-ylamino)methyl)piperidin-1-yl)-3,3-dimethylbutan-2-one]	> 20

Same assay, conditions: Influenza A virus, PR/8, MDCK, MDCK cells infected with A/PR/8/34; survival of infected cells; class symbols; read-out: IC50 (mean all)

SMILES	IC50 [µM]
CCCNC(=O)N1CCOCC1CNc1nc(-c2c[nH]c3ncc(Cl)cc23)ncc1F (stereo not shown) [Compound 517, 3-((2-(5-chloro-1H-pyrrolo[2,3-b]pyridin-3-yl)-5-fluoropyrimidin-4-ylamino)methyl)-N-propylmorpholine-4-carboxamide]	5 to 20
CS(=O)(=O)N1CCCC(Nc2nc(-c3c[nH]c4ncc(Cl)cc34)ncc2F)CC1 (stereo not shown) [Compound 496, N-(2-(5-chloro-1H-pyrrolo[2,3-b]pyridin-3-yl)-5-fluoropyrimidin-4-yl)-1-(methylsulfonyl)azepan-4-amine]	5 to 20

Same assay, conditions: Influenza A virus, PR/8, MDCK, mean all; A/PR/8/34 infected MDCK cells, CPE assay; read-out: IC50

SMILES	IC50 [µM]
CCCC(=O)N[C@@H]1CCCC[C@H]1Nc1nc(-c2c[nH]c3ncc(Cl)cc23)ncc1F [Compound 369, N-[(1R,2R)-2-[[2-(5-chloro-1H-pyrrolo[2,3-b]pyridin-3-yl)-5-fluoro-pyrimidin-4-yl]amino]cyclohexyl]butanamide]	> 20
CCCS(=O)(=O)N[C@@H]1CCCC[C@@H]1Nc1nc(-c2c[nH]c3ncccc23)ncc1F (relative stereo) [Compound 346, N-[cis-2-[[5-fluoro-2-(1H-pyrrolo[2,3-b]pyridin-3-yl)pyrimidin-4-yl]amino]cyclohexyl]propane-1-sulfonamide]	> 20
CCCC(=O)N[C@@H]1CCCC[C@H]1Nc1nc(-c2c[nH]c3ncccc23)ncc1F [Compound 358, N-[(1R,2R)-2-[[5-fluoro-2-(1H-pyrrolo[2,3-b]pyridin-3-yl)pyrimidin-4-yl]amino]cyclohexyl]butanamide]	> 20
CC(C)S(=O)(=O)N1CCOC(CNc2nc(-c3c[nH]c4ncc(Cl)cc34)ncc2F)C1 (stereo not shown) [Compound 448, 2-(5-chloro-1H-pyrrolo[2,3-b]pyridin-3-yl)-5-fluoro-N-((4-(isopropylsulfonyl)morpholin-2-yl)methyl)pyrimidin-4-amine]	> 20
CCCNC(=O)N[C@@H]1CCCC[C@H]1Nc1nc(-c2c[nH]c3ncccc23)ncc1F [Compound 370, 1-[(1R,2R)-2-[[5-fluoro-2-(1H-pyrrolo[2,3-b]pyridin-3-yl)pyrimidin-4-yl]amino]cyclohexyl]-3-propyl-urea]	> 20
O=C(O[C@H]1CCOC1)N1CC[C@@H](Nc2nc(-c3c[nH]c4ncc(Cl)cc34)ncc2F)C1 [Compound 424]	> 20
CCC(=O)N[C@@H]1CCCC[C@@H]1Nc1nc(-c2c[nH]c3ncccc23)ncc1F (relative stereo) [Compound 341, N-[cis-2-[[5-fluoro-2-(1H-pyrrolo[2,3-b]pyridin-3-yl)pyrimidin-4-yl]amino]-cyclohexyl]propanamide]	> 20
O=C(C1CC1)N1CCC[C@H](Nc2nc(-c3c[nH]c4ncc(Cl)cc34)ncc2F)C1 [Compound 451]	5 to 20
O=C(N[C@@H]1CCCC[C@H]1Nc1nc(-c2c[nH]c3ncc(Cl)cc23)ncc1F)C1CCCC1 [Compound 351, N-[(1R,2R)-2-[[2-(5-chloro-1H-pyrrolo[2,3-b]pyridin-3-yl)-5-fluoro-pyrimidin-4-yl]amino]cyclohexyl]cyclopentanecarboxamide]	> 20
CCCS(=O)(=O)N1CCCC[C@@H]1CNc1nc(-c2c[nH]c3ncc(Cl)cc23)ncc1F [Compound 328, (R)-2-(5-chloro-1H-pyrrolo[2,3-b]pyridin-3-yl)-5-fluoro-N-((1-(propylsulfonyl)piperidin-2-yl)methyl)pyrimidin-4-amine]	> 20

Same assay, conditions: Influenza A virus, PR/8, MDCK; read-out: IC50

SMILES	IC50 [µM]
CCCS(=O)(=O)N1CC(Nc2nc(-c3c[nH]c4ncc(Cl)cc34)ncc2F)C1 [Compound 423]	> 20

Same assay, conditions: mean all; A/PR/8/34 infected MDCK cells, CPE assay; read-out: IC50

SMILES	IC50 [µM]
CS(=O)(=O)N1CCCC(Nc2ccnc(-c3c[nH]c4ncc(Cl)cc34)n2)C1 (stereo not shown) [Compound 466]	5 to 20
CC(C)S(=O)(=O)N1CCCC(Nc2ccnc(-c3c[nH]c4ncc(Cl)cc34)n2)C1 (stereo not shown) [Compound 465]	5 to 20
O=C1CCC(CNc2nc(-c3c[nH]c4ncc(Cl)cc34)ncc2F)CN1 (stereo not shown) [Compound 378]	> 20

Same assay, conditions: read-out: IC50

SMILES	IC50 [µM]
COP(=O)(OC)[C@]1(O)CCC[C@H](Nc2nc(-c3c[nH]c4ncc(Cl)cc34)ncc2F)C1 [Compound 742]	< 5
COP(=O)(OC)[C@@]1(O)CCC[C@H](Nc2nc(-c3c[nH]c4ncc(Cl)cc34)ncc2F)C1 [Compound 741]	< 5
